Two compounds from patent publication US11420973B2, “Amide substituted indole compounds useful as TLR inhibitors” (BRISTOL-MYERS SQUIBB COMPANY, priority 2017, dated 2022) can be followed below.

The target in test [1] is human TLR7 (Homo sapiens (Human), UniProt Q9NYK1). Briefly: TLR7 inhibition reporter assay (HEK-Blue SEAP reporter, gardiquimod stimulation). It counts as cell-based. Particulars: HEK-Blue cells overexpressing human TLR7, gardiquimod 7.5 μM. In general terms: A reporter such as luciferase makes a cellular process visible.
human TLR7, sequence (Q9NYK1 27-1049): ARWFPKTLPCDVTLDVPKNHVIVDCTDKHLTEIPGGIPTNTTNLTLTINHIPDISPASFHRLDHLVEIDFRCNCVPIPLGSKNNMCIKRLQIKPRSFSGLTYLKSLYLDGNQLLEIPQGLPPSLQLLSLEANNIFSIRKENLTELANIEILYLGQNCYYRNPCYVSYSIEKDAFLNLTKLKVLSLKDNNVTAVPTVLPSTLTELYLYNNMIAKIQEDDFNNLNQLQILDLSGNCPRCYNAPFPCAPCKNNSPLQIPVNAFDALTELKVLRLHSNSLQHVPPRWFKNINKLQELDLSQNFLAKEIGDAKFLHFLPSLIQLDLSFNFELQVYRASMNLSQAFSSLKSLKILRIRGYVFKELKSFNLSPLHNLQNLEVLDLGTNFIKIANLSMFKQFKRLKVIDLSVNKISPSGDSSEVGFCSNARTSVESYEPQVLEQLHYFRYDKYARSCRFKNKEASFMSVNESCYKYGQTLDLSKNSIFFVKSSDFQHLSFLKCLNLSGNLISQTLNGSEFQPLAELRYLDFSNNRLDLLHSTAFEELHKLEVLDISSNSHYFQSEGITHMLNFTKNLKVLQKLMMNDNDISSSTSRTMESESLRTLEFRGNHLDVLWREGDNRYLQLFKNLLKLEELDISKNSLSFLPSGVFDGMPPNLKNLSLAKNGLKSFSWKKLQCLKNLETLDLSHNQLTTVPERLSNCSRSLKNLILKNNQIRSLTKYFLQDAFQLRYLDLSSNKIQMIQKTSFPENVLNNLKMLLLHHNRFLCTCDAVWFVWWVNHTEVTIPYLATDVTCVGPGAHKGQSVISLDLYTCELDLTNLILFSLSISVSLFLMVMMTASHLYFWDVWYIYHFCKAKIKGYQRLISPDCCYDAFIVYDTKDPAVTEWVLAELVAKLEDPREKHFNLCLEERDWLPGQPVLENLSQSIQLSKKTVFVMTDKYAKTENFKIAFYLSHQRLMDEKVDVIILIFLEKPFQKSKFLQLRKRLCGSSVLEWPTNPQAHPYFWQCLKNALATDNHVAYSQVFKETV
Method: HEK-Blue™-cells (Invivogen) overexpressing human TLR7, TLR8 or TLR9 receptors were used for screening inhibitors of these receptors using an inducible SEAP (secreted embryonic alkaline phosphatase) reporter gene under the control of the IFN-β minimal promoter fused to five NF-κB and AP-1-binding sites. Briefly, cells are seeded into Greiner 384 well plates (15000 cells per well for TLR7, 20,000 for TLR8 and 25,000 for TLR9) and then treated with test compounds in DMSO to yield a final dose response concentration range of 0.05 nM-50 μM. After a 30 minute compound pre-treatment at room temperature, the cells are then stimulated with a TLR7 ligand (gardiquimod at a final concentration of 7.5 μM), TLR8 ligand (R848 at a final concentration of 15.9 μM) or TLR9 ligand (ODN2006 at a final concentration of 5 nM) to activate NF-κB and AP-1 which induce the production of SEAP. After a 22 hour incubation at 37° C., 5% CO2, SEAP levels are determined with the addition of HEK-Blue™ Detection reagent (Invivogen), a cell culture medium that allows for detection of SEAP, according to manufacturer's specifications.
In test [2] the target is human TLR8 (Homo sapiens (Human), UniProt Q9NR97). Briefly: TLR8 inhibition reporter assay (HEK-Blue SEAP reporter, R848 stimulation).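 Note: SEAP driven by IFN-β minimal promoter with NF-κB and AP-1 sites, 22 h incubation, compounds 0.05 nM–50 µM, inhibition scaled between agonist plus DMSO and reference inhibitor wells.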 Particulars: read-out: TLR8 IC50; HEK-Blue cells overexpressing human TLR8, R848 15.9 μM, SEAP reporter.
human TLR8, sequence (Q9NR97 27-1041): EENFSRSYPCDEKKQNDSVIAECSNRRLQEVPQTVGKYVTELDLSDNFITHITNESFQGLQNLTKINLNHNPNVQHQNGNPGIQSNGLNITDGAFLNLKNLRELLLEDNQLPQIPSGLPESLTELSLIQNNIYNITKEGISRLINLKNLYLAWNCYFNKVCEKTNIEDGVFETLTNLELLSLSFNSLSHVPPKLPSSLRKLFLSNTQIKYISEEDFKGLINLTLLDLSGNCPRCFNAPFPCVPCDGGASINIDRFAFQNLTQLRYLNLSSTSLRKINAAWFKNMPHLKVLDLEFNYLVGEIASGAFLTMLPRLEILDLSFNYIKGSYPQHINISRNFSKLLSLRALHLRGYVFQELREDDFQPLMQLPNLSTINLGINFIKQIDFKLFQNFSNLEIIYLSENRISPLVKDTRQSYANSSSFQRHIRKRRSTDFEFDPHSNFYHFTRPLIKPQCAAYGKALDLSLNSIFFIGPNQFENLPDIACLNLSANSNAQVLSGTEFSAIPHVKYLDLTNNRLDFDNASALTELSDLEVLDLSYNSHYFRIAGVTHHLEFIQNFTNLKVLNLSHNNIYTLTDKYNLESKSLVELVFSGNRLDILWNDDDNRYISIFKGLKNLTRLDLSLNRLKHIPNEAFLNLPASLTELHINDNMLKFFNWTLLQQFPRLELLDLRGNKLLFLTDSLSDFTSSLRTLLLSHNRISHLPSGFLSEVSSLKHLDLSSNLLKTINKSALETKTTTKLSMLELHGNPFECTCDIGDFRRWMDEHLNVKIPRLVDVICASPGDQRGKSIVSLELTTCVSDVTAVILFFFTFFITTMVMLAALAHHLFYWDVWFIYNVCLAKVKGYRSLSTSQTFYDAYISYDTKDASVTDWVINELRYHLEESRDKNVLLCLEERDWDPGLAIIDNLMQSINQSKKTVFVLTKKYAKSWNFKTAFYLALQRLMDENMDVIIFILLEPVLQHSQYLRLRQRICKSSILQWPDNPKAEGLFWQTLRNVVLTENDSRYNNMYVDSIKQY
In test [3] the target is human TLR9 (Homo sapiens (Human), UniProt Q9NR96). Kind of test: TLR9 inhibition reporter assay (HEK-Blue SEAP reporter, ODN2006 stimulation).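 Note: SEAP reporter under IFN-β minimal promoter with five NF-κB and AP-1 sites, 22 h incubation, compounds 0.05 nM–50 µM, inhibition relative to agonist plus DMSO versus known inhibitor.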 Particulars: read-out: TLR9 IC50; HEK-Blue cells overexpressing human TLR9, ODN2006 5 nM, SEAP reporter.
human TLR9, sequence (Q9NR96 26-1032): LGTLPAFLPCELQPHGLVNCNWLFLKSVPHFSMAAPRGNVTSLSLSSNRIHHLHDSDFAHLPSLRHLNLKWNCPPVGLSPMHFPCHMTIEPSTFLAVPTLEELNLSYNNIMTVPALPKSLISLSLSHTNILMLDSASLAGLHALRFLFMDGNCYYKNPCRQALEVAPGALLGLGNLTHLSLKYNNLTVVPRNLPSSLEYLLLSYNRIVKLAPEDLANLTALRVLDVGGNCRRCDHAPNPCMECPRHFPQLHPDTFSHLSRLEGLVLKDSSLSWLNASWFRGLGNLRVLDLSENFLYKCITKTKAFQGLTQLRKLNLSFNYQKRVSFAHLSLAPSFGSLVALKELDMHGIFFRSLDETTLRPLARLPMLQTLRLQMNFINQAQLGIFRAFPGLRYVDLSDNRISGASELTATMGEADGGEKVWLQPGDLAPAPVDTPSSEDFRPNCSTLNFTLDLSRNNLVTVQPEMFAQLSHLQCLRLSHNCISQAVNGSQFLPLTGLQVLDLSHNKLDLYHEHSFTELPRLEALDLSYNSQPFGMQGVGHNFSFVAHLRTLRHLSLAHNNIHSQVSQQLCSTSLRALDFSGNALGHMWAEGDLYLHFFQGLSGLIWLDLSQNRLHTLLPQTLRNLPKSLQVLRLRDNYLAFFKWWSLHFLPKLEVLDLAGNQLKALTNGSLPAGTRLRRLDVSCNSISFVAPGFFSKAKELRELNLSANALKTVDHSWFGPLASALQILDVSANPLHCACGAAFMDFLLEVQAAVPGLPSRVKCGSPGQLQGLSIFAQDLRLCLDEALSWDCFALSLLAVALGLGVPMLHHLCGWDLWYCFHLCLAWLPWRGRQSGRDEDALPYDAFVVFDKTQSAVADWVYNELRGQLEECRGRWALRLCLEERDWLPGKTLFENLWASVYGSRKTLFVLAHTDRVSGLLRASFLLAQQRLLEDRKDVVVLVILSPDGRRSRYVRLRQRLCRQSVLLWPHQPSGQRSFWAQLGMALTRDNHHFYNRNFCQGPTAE

SMILES strings stand for the structures.

Take `Cc1cc(-c2[nH]c3ccc(C(C)C(=O)NC4CCCC(N)C4)cc3c2C(C)C)ccn1` (stereo not drawn) [Example 219, N-(3-aminocyclohexyl)-2-(3-isopropyl-2-(2-methylpyridin-4-yl)-1H-indol-5-yl)propanamide]: the half-maximal inhibitory concentration (IC50) – broadly, the midpoint of a concentration-inhibition curve – is 256 nM in test [1], 182 nM in test [2] and 1750 nM in test [3].
For `Cc1c(-c2[nH]c3ccc(C(=O)N(C)CCN(C)C)cc3c2C(C)C)cn(C)c(=O)c1Cl` [Example 222, 2-(5-chloro-1,4-dimethyl-6-oxo-1,6-dihydropyridin-3-yl)-N-(2-(dimethylamino)ethyl)-3-isopropyl-N-methyl-1H-indole-5-carboxamide], in that order: 22 nM, 10 nM and 6920 nM.
